The values that follow come from ChEMBL document CHEMBL3817845, “Development of CNS multi-receptor ligands: Modification of known D2 pharmacophores” (Bioorg Med Chem, 2016).

Series [1] deals with T1, 5-hydroxytryptamine receptor 2A (Homo sapiens, UniProt P28223). Put plainly: Binding affinity to 5HT2A receptor (unknown origin).
For series [2], the target named is T2, D(3) dopamine receptor (Homo sapiens, UniProt P35462). Put plainly: Displacement of [125I]-IABN from human recombinant dopamine D3 receptor expressed in HEK293 cell membrane incubated for 60 mins filtration binding assay. In general terms: In a radioligand displacement assay an active substance lowers the binding of a labelled ligand.
T2 sequence (P35462 whole entry): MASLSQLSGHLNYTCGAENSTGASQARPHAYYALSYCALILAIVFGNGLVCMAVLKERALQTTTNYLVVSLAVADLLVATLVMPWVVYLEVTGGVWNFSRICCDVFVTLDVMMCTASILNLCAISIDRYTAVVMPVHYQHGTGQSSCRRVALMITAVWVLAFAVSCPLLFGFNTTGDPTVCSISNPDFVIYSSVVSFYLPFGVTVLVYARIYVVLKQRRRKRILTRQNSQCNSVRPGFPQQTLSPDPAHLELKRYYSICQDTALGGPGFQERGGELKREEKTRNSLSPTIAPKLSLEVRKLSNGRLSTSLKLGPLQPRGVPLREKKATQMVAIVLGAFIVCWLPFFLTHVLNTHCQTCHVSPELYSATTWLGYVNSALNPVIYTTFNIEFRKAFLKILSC
Series [3] addresses T2, D(3) dopamine receptor. Put plainly: Displacement of [3H]N-methylspiperone from human recombinant dopamine D3 receptor incubated for […] by microbeta scintillation counting method.
In series [4] the target is D(2) dopamine receptor (Homo sapiens, UniProt P14416). Put plainly: Displacement of [3H]N-methylspiperone from human recombinant dopamine D2 receptor incubated for […] by microbeta scintillation counting method.
D(2) dopamine receptor, sequence (P14416 whole entry): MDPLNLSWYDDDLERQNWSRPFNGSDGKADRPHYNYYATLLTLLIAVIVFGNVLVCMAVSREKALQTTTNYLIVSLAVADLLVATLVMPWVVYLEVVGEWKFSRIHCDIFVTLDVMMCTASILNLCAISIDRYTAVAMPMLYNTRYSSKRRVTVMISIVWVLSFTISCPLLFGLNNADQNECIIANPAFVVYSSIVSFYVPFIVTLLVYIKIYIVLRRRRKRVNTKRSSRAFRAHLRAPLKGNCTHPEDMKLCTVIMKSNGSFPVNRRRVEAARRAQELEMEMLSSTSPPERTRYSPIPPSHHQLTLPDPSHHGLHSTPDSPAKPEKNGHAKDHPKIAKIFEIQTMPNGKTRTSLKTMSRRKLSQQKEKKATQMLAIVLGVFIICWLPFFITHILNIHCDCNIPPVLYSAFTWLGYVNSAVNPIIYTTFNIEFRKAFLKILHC
The target of series [5] is Histamine H1 receptor (Homo sapiens, UniProt P35367). Put plainly: Displacement of [3H]Pyrilamine from human recombinant histamine H1 receptor incubated for […] by microbeta scintillation counting method.
Histamine H1 receptor, sequence (P35367 whole entry): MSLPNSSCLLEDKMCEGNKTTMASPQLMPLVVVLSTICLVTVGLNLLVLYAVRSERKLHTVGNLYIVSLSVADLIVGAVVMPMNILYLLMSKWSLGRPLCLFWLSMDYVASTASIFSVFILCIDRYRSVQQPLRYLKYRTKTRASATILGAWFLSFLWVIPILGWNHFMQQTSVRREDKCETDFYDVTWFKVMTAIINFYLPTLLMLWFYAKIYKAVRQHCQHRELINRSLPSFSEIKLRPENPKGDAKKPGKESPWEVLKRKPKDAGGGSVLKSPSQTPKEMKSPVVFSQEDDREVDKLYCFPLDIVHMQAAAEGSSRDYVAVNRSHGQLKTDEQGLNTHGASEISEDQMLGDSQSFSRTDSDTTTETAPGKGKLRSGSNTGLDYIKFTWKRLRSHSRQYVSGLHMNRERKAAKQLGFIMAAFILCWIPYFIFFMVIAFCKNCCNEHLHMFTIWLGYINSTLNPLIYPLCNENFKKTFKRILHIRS
The target in series [6] is T3, 5-hydroxytryptamine receptor 1A (Homo sapiens, UniProt P08908).
T3 sequence (P08908 whole entry): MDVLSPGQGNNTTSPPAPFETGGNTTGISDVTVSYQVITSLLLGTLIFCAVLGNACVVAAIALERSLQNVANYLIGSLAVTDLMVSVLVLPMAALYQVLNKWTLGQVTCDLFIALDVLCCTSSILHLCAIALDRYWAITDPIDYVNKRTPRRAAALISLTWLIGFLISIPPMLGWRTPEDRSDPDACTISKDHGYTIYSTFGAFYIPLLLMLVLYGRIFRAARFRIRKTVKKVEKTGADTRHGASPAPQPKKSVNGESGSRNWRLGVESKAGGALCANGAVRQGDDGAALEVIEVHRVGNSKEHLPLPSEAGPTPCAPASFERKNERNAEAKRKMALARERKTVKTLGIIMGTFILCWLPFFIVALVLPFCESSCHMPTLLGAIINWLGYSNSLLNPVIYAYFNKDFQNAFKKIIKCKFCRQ
Put plainly: (§1) Displacement of [3H]8-OH-DPAT from human recombinant 5HT1A receptor incubated for […] by microbeta scintillation counting method.

In series [7] the target is T4, D(4) dopamine receptor (Homo sapiens, UniProt P21917).
T4 sequence (P21917 whole entry): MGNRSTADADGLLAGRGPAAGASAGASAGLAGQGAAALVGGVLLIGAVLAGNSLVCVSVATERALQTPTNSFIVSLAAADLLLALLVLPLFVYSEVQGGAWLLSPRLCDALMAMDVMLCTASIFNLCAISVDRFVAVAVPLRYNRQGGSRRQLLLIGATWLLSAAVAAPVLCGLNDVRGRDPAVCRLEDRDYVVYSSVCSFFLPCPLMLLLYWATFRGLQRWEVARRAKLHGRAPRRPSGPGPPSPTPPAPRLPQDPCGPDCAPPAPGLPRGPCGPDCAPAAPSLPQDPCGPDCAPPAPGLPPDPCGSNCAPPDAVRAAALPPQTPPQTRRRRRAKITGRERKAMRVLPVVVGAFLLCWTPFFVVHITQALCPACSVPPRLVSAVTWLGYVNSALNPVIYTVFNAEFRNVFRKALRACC
Put plainly: Displacement of [3H]N-methylspiperone from human recombinant dopamine D4 receptor incubated for […] by microbeta scintillation counting method.

The target in series [8] is 5-hydroxytryptamine receptor 2B (Homo sapiens, UniProt P41595). Put plainly: Displacement of [3H]LSD from human recombinant 5HT2B receptor incubated for […] by microbeta scintillation counting method.
5-hydroxytryptamine receptor 2B, sequence (P41595 whole entry): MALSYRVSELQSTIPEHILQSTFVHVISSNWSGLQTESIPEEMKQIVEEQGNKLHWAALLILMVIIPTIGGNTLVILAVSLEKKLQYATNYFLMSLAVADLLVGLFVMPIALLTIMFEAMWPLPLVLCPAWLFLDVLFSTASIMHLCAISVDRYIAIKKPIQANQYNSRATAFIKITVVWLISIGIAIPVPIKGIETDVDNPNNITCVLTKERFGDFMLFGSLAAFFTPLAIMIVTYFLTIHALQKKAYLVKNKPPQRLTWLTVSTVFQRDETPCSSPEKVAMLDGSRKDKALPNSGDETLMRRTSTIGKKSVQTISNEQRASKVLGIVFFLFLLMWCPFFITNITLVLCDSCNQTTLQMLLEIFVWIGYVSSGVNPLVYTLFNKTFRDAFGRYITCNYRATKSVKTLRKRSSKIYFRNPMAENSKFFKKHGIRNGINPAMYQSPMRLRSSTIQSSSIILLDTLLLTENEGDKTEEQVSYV
The target of series [9] is Sodium-dependent serotonin transporter (Homo sapiens, UniProt P31645). Put plainly: Displacement of [3H]Citalopram from human recombinant SERT incubated for […] by microbeta scintillation counting method.
The target in series [10] is 5-hydroxytryptamine receptor 7 (Homo sapiens, UniProt P34969). Put plainly: Displacement of [3H]LSD from human recombinant 5HT7 receptor incubated for […] by microbeta scintillation counting method.
5-hydroxytryptamine receptor 7, sequence (P34969 whole entry): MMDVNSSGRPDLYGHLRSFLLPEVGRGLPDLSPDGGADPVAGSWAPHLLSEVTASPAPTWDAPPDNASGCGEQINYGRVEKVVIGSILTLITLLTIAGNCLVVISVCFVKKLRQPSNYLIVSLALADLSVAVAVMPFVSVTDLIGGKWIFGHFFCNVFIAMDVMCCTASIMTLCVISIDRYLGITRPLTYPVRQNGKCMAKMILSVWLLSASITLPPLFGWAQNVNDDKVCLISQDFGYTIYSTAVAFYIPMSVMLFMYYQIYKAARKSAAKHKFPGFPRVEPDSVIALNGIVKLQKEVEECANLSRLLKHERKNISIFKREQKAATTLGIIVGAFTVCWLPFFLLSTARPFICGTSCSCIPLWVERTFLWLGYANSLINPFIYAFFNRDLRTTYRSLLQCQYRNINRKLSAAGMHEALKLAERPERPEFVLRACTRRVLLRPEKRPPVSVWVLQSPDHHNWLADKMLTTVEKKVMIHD
The target in series [11] is T5, 5-hydroxytryptamine receptor 2C (5HT2C) (Homo sapiens, UniProt P28335).
T5 sequence (P28335 whole entry): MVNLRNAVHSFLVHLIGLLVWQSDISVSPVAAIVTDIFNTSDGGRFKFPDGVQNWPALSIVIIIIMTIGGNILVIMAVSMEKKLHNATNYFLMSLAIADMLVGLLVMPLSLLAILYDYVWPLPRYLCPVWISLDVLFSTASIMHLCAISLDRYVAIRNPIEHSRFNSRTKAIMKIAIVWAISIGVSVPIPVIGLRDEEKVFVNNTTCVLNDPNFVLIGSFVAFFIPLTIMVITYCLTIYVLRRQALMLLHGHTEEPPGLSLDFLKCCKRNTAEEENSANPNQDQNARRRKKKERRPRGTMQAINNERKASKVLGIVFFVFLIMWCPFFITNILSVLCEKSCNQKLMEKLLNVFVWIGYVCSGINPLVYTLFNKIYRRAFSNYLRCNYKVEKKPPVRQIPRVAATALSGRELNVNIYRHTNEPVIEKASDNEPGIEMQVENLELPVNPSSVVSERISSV
Put plainly: (§2) Displacement of [3H]Mesulergine from human recombinant 5HT2C receptor incubated for […] by microbeta scintillation counting method. Particulars: human, recombinant 5HT2C receptor, probe [3H]Mesulergine.

Series [12] has as its target T1, 5-hydroxytryptamine receptor 2A. Put plainly: Displacement of [3H]Ketanserin from human recombinant 5HT2A receptor incubated for […] by microbeta scintillation counting method.
The nature of series [13]: Lipophilicity, log P of the compound. It counts as physicochemical. The conditions noted are these: octanol/water.
For series [14], the target named is T6, 5-hydroxytryptamine receptor 2C (Homo sapiens, UniProt P28335).
T6 sequence (P28335 whole entry): T5 sequence (P28335 whole entry)
The description is as §2.

For series [15], the target named is T7, 5-hydroxytryptamine receptor 1A (Homo sapiens) (UniProt P08908).
T7 sequence (whole entry): T3 sequence (P08908 whole entry)
The description is as §1.

T1 sequence (P28223 whole entry): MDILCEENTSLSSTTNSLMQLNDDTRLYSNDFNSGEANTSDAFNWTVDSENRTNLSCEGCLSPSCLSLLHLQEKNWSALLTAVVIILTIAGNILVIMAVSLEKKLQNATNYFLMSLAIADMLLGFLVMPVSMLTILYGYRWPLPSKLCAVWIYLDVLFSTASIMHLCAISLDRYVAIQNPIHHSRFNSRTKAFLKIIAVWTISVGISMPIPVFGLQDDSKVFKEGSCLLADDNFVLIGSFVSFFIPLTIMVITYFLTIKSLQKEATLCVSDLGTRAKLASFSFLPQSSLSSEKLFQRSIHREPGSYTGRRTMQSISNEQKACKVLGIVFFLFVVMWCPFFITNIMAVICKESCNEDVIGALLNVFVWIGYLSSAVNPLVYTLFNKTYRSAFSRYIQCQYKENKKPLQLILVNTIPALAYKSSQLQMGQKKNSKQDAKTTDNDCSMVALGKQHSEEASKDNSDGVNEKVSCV

For `O=C(CCCN1CCC(n2c(O)nc3ccccc32)CC1)c1ccc(F)cc1` [BENPERIDOL], the Ki came out at 0.0012 µM in series [1] and 0.00029 µM in series [2].
With `OC1(c2ccc(Cl)cc2)CCN(CCCCc2nc3ccccc3s2)CC1`, the Ki in series [3] is 0.291 µM.
As to `O=C1NCN(c2ccccc2)C12CCN(CCCCc1nc3ccccc3o1)CC2`, the Ki in series [4] turned out to be 0.01 µM; in [5] (read-out: Ki), 0.535 µM; in series [3], 0.021 µM; in series [6], 0.382 µM; in [7], 0.118 µM; in [8], 0.905 µM. Moreover, the Ki in [10] amounted to 1.51 µM. The inhibition in series [9] and in series [12] was under 50% each time. The inhibition (usually the change of the read-out against control, counted positive when it falls) at […] in series [11] was under 50%.
For `OC1(c2ccc(Cl)cc2)CCN(CCCCc2nc3ccccc3o2)CC1`, the Ki in series [4] turned out to be 0.438 µM; in series [3], 0.942 µM; in series [6], 3.15 µM; in series [7] it was 0.229 µM; in series [12], 5.97 µM. Further, the inhibition in series [10] was under 50%.
In the case of `OC1(c2ccc(Cl)cc2)CC2CCC(C1)N2CCCCc1nc2ccccc2s1` (stereo not drawn), the Ki in series [8] worked out at 0.342 µM; in series [9] (read-out: Ki) it was 0.18 µM; in [10] it was 1.01 µM.
Regarding `O=C(CCCN1CCC2(CC1)C(=O)NCN2c1ccccc1)c1ccc(F)cc1` [SPIPERONE], the log partition coefficient (logP) (in general, a log measure of how a compound divides between an organic and an aqueous phase) in series [13] was 2.78.
On the same count and under the same terms, next, `O=C(CCCN1CCC(O)(c2ccc(Cl)cc2)CC1)c1ccc(F)cc1` [HALOPERIDOL]: 3.49.
Regarding `O=C(CCCCN1CCC2(CC1)C(=O)NCN2c1ccccc1)c1nc2ccccc2s1`, the Ki in [3] came to 0.018 µM; in series [7] it was 0.162 µM. In series [11], the inhibition at […] is under 50%.
For `O=C1NCN(c2ccccc2)C12CCN(CCCCc1c[nH]c3ccccc13)CC2`, the Ki in series [5] (read-out: Ki) was 0.273 µM; in series [3], 0.031 µM; in [6], 0.376 µM; in series [7], 0.0016 µM; in series [8], 0.202 µM; in series [9] (read-out: Ki), 0.01 µM. Moreover, the Ki in series [9] (read-out: pKi (converted)) is 0.00468 µM; in series [10], over 10 µM. Further, in series [11], the inhibition at […] was under 50%. Also, in [13], the log partition coefficient (logP) was 3.52.
With `O=C1NCN(c2ccccc2)C12CCN(CCCCc1nc3cc(Cl)ccc3s1)CC2`, the Ki in series [4] was 0.018 µM; in series [5] (read-out: Ki), 0.263 µM; in series [5] (read-out: pKi (converted)) it was 0.275 µM; in series [3], 0.499 µM; in series [6], 0.102 µM; in series [8] it was 0.036 µM. The figures for the Ki in series [9] (read-out: Ki) and in series [14] were 3.06 µM and 0.614 µM, respectively.
For `OC1(c2ccc(Cl)cc2)CCN(CCCc2nc3ccccc3s2)CC1`, the Ki is 0.763 µM in series [4]; 0.028 µM in [3]; 0.034 µM in series [6]; 0.163 µM in series [7]; 0.189 µM in [10]; 0.168 µM in series [12].
`Cl.O=C(CCCCN1C2CCC1CC(O)(c1ccc(Cl)cc1)C2)c1nc2ccccc2s1` (stereo not drawn): in [4], the pKi (commonly the negative decadic logarithm of the Ki, by convention in mol/L) turned out to be 6.74. Also, the Ki in series [5] (read-out: Ki) was 1.03 µM; in series [8], 0.758 µM; in series [9] (read-out: Ki), 0.054 µM; in series [9] (read-out: pKi (converted)) it was 0.00468 µM; in [10], 0.08 µM. Moreover, the inhibition in series [15] and in series [12] was under 50% in each case. In addition, the inhibition at […] in series [11] is under 50%.
Take `Fc1ccc(C(c2ccc(F)cc2)N2CCN(CCCCc3nc4ccccc4s3)CC2)cc1`: the Ki worked out at 0.195 µM in [4]; 0.033 µM in series [3]; 0.068 µM in series [7]; 0.778 µM in series [10]; 0.519 µM in [12]. In addition, the inhibition in series [15] is under 50%.
Turning to `O=C1NCN(c2ccccc2)C12CCN(CCCCc1nc3ccccc3s1)CC2`, the Ki in [4] worked out at 0.024 µM; in [5] (read-out: Ki) it was 0.504 µM; in [3], 0.032 µM; in series [6], 0.195 µM; in series [7] it was 0.132 µM; in series [8], 0.122 µM. In addition, the figures for the Ki in [10] and in series [12] were 0.626 µM and over 10 µM, respectively. For the same molecule, the inhibition in series [9] is under 50%. Besides, in [11], the inhibition at […] was under 50%.
Turning to `O=C(CCCCN1CCC(n2c(=O)[nH]c3cc(Cl)ccc32)CC1)c1nc2ccccc2s1`, the Ki in [3] stood at 0.064 µM.
For the molecule `O=C(CCCCN1CCN(C(c2ccc(F)cc2)c2ccc(F)cc2)CC1)c1nc2ccccc2s1`, the Ki in series [4] is 0.159 µM; in [3] it was 0.233 µM; in series [7], 1.22 µM; in series [10], 0.562 µM; in [12], 1.08 µM. Besides, the inhibition in series [15] was under 50%.
